Consider 33 molecules from paper PMC6339874, “Anthranilic Acid Inhibitors of Undecaprenyl Pyrophosphate Synthase (UppS), an Essential Enzyme for Bacterial Cell Wall Biosynthesis” (Frontiers in Microbiology, 2019).

pIC50: −log10 of the molar value. Converted amounts (≈) assume the structure as drawn. Where only a bound is given, the exact number is not on record here.

One test deals with E. coli. The experiment in a line: microbe, parasite or virus in culture. Also noted: antibacterial MIC determination on wild-type strains. The note with it: Escherichia coli, read-out: MIC E. coli. The procedure:
E. coli AcrAB-TolC is a tripartite multidrug efflux pump system that expels compounds form the cell and this represents one of the possible mechanisms of bacterial defence against xenobiotics ([Kim et al., 2015]). […] On the other hand, compound 2 inhibited bacterial growth in both E. coli BW25113 ΔtolC strains with or without permeable membrane (MIC = 0.5 μg/mL). The antibacterial activity in the efflux pump-deficient E. coli BW25113 ΔtolC strain is independent from the presence of polymyxine B. Therefore, it can be postulated on the basis of the evaluation of compound 2, that transport across E. coli cell membrane is possible. This compound therefore represents an interesting starting point for further development, for example computational searches of similar compounds and analog synthesis.

Test [1] addresses T1, undecaprenyl pyrophosphate synthase (UppS) (Escherichia coli, UniProt P60472).
T1 construct: gene ispU; N-terminal His6-tagged UppSEc
T1 sequence (P60472 1-253): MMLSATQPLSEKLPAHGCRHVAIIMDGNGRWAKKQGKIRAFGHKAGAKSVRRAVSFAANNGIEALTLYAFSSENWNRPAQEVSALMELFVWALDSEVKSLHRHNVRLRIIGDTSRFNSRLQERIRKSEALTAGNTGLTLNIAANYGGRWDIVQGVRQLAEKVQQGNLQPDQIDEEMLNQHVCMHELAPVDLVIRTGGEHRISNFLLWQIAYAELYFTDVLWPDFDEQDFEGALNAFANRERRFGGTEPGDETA
Kind of test: biochemical. Also noted: radiolabeled [14C]-IPP UppS assay, TLC quantification of [14C]-UPP; residual activity or IC50. As to conditions: read-out: % of control remaining. As for the experimental part: The UppS enzymatic activity was determined by using a kinetics-based assay utilizing a radiolabeled substrate. The assay revolves on the measuring of UPP formation in the reaction mixture in a final volume of 40 μL. Stock solutions of all compounds (2 mM) were prepared in DMSO and the final concentration of DMSO in the assay was 5% (v/v). The enzyme was diluted in buffer A to appropriate concentration so that the consumption of the substrate in the assay is no higher than 30%. The reaction mixture consisted of 20 μL of 100 mM HEPES, pH 7.5, 50 mM KCl, 0.5 mM MgCl2, 1.5 μM FPP, 12 μM [^14C]-IPP ([^14C]-IPP; 289 Bq), 2 μL DMSO with or without the inhibitor and 18 μL of optimal enzyme solution. […] Reaction mixture was lyophilized and resuspended in 10 μL of purified water. The radiolabeled substrate, [^14C]-IPP, and the product, [^14C]UPP, were separated on a Silica gel 60 TLC plate using 1-propranol / ammonium hydroxide / water in ratio of 6/3/1 (v/v/v) as a mobile phase (Rf([^14C]–IPP) = 0.21, Rf[^14C]UPP = 0.56), and quantified with a radioactivity scanner (Rita Star, Raytest Isotopenmessgeräte GmbH, Straubenhardt, Germany). Residual activities (RAs) were calculated with respect to a control reaction without the tested compounds and with 5% DMSO. All the experiments were run in duplicate with standard deviations within ± 10%. The IC50 values represented the concentrations for which the RA was 50% and were determined by measuring the RAs at seven different compound concentrations. The 34 purchased compounds were tested for their inhibitory potencies against E. coli UppS using a radioactivity-based assay. In these test conditions, the [^14C]-UPP formation is observed thanks to a radiolabeled substrate ([^14C]-IPP) and quantified with a radioactivity scanner. The results are presented as RAs of UppS in the presence of 100 μM of each compound (Supplementary Table S1). […] Sodium risedronate was used as a positive control to enable the comparison of the purchased compounds to a known inhibitor and to confirm the results of the UppS inhibition assay. […] All three inhibitors are anthranilic acid derivatives with a larger hydrophobic moiety attached to the amide group via different linkers, 2-cyanoacryloyl for compounds 1 and 2 and 2-thioacetyl for compound 3.

For a further test, the system named is S. aureus. The experiment in a line: microbe, parasite or virus in culture. Also noted: antibacterial MIC determination on wild-type strains. As to conditions: Staphylococcus aureus, read-out: MIC S. aureus.
The target of test [2] is T2, undecaprenyl pyrophosphate synthase (UppS) (Escherichia coli, UniProt P60472).
T2 construct: gene ispU; N-terminal His6-tagged UppSEc
Kind of test: radiolabeled […]-IPP assay, TLC quantification of […]-UPP, IC50 from seven concentrations. The class given is biochemical.

As to `O=C(O)c1ccccc1C(=O)Nc1ccc(C(=O)N(c2ccccc2)c2ccc3ccccc3c2)cc1` [S2], the MIC with E. coli and in the test with S. aureus was > 128 µg/mL each time. The remaining activity at 100 µM in test [1] turned out to be 58%.

On to `O=C(O)C1CCCCC1C(=O)Nc1ccc(N2CCN(c3cccc(Cl)c3Cl)CC2)cc1` (stereo not drawn) [S3], for which the MIC in the test on E. coli and with S. aureus was > 128 µg/mL each time. In addition, the remaining activity at 100 µM in test [1] was 96%.

For `CC(=O)c1ccc(NC(=O)C(Sc2ccc(NC(=O)c3ccccc3C(=O)O)cc2)c2ccccc2)cc1` (stereo not drawn) [S4], the MIC in the test on E. coli and with S. aureus was > 128 µg/mL throughout. For the same molecule, in test [1], the remaining activity at 100 µM was found to be 101%.

Turning to `O=C(Cc1ccccc1C(=O)O)Nc1ccn(Cc2ccccc2Cl)n1` [S5], the MIC in the test with E. coli and in the test on S. aureus was > 128 µg/mL throughout. Further, the remaining activity at 100 µM in test [1] was found to be 115%.

Regarding `O=C(O)C1CCCCC1C(=O)Nc1ccc(N2CCN(Cc3ccccc3)CC2)cc1` (stereo not drawn) [S6], the MIC in the test on E. coli and in the test on S. aureus was > 128 µg/mL each time. Further, the remaining activity at 100 µM in test [1] is 53%.

Consider `CCCn1cc(NC(=O)CNS(=O)(=O)c2cccc3c(N(C)C)cccc23)c(C(=O)O)c1` [S7], for which the MIC in the test on E. coli and in the test with S. aureus was > 128 µg/mL throughout. Besides, in test [1], the remaining activity at 100 µM came out at 85%.

`O=C(O)CCC(NC(=O)C(=Cc1cn(-c2ccccc2)nc1-c1cccnc1)NC(=O)c1ccccc1)C(=O)O` (stereo not drawn) [S8]: the MIC with E. coli and with S. aureus was > 128 µg/mL each time. Moreover, the remaining activity at 100 µM in test [1] was determined as 92%.

Consider `Cc1ccc(Nc2nccc(Nc3ccc(O)c(C(=O)O)c3)n2)c(C)c1` [S9], for which the MIC in the test on E. coli and in the test with S. aureus was > 128 µg/mL in each case. In test [1], the remaining activity at 100 µM amounted to 72%.

Turning to `O=C(O)c1ccccc1C(=O)Nc1ccc(C(=O)N(c2ccccc2)c2cccc3ccccc23)cc1` [S11], the MIC in the test on E. coli and in the test on S. aureus was > 128 µg/mL in each case. The remaining activity at 100 µM in test [1] was 60%.

Consider `Cc1sc(NC(=O)c2ccccc2C(=O)O)nc1-c1ccc(-c2ccccc2)cc1` [S12], for which the MIC in the test with E. coli and in the test on S. aureus was > 128 µg/mL each time. In addition, the remaining activity at 100 µM in test [1] came out at 120%.

For the molecule `Cc1cc(C)n(CCCNc2ccc(C(=O)c3ccccc3C(=O)O)cc2[N+](=O)[O-])n1` [S13], the MIC with E. coli and in the test on S. aureus was > 128 µg/mL in each case. In addition, the remaining activity at 100 µM in test [1] was 92%.

As for `O=C(Nc1ccccc1C(=O)O)c1cccc(NC(=O)C(c2ccccc2)c2ccccc2)c1` [S14], the MIC with E. coli was > 128 µg/mL; with S. aureus it was 128 µg/mL (≈ 284 µM). Moreover, the remaining activity at 100 µM in test [1] came to 101%.

`O=C(CN1CCCC1C(=O)O)NCc1ccc(COc2ccccc2)cc1` (stereo not drawn) [S15]: the MIC with E. coli and with S. aureus was > 128 µg/mL in each case. Also, in test [1], the remaining activity at 100 µM was 124%.

`Cc1ccc(N2CCN(C(=O)c3ccccc3NC(=O)C3CC=CCC3C(=O)O)CC2)cc1` (stereo not drawn) [S16]: the MIC in the test with E. coli and in the test with S. aureus was > 128 µg/mL throughout. The remaining activity at 100 µM in test [1] came out at 104%.

On to `Cc1ccc(-n2c(SCC(=O)Nc3ccccc3C(=O)O)nnc2-c2cc3ccccc3o2)cc1` [S18], for which the MIC in the test with E. coli and in the test with S. aureus was > 128 µg/mL each time. Besides, in test [1], the remaining activity at 100 µM turned out to be 122%.

With `O=C(O)C1CC=CCC1C(=O)Nc1ccccc1C(=O)N1CCN(c2ccc(F)cc2)CC1` (stereo not drawn) [S19], the MIC in the test with E. coli and in the test on S. aureus was > 128 µg/mL throughout. Further, the remaining activity at 100 µM in test [1] was 99%.

In the case of `O=C(O)c1cccc(C(=O)NCCc2nc3ccccc3n2C(F)F)c1` [S20], the MIC with E. coli and in the test with S. aureus was > 128 µg/mL in each case. The remaining activity at 100 µM in test [1] stood at 168%.

For `COc1ccc(C(=O)Nc2ccc(N3CCN(c4ccccc4F)CC3)cc2C(=O)O)cc1` [S21], the MIC in the test on E. coli and in the test with S. aureus was > 128 µg/mL in each case. In addition, in test [1], the remaining activity at 100 µM is 74%.

For `O=C(Nc1ccc(COCc2ccccc2)cc1)c1ccnc(C(=O)O)c1` [S22], the MIC in the test on E. coli and with S. aureus was > 128 µg/mL each time. The remaining activity at 100 µM in test [1] came out at 93%.

With `Cc1ccc(OCCNC(=O)C2CC=CCC2C(=O)O)cc1` (stereo not drawn) [S23], the MIC in the test with E. coli and with S. aureus was > 128 µg/mL in each case. Further, the remaining activity at 100 µM in test [1] came out at 117%.

As for `O=C(COc1ccccc1)Nc1ccc(N2CCN(c3ccc(Cl)cc3)CC2)cc1C(=O)O` [S25], the MIC in the test on E. coli was > 128 µg/mL; in the test with S. aureus, 64 µg/mL (≈ 137 µM). The remaining activity at 100 µM in test [1] amounted to 121%.

As for `CCOc1ccc(N(CC(=O)Nc2ccccc2C(=O)O)S(=O)(=O)c2ccc(Cl)cc2)cc1` [S26], the MIC with E. coli was > 128 µg/mL; in the test with S. aureus, 128 µg/mL (≈ 262 µM). Besides, in test [1], the remaining activity at 100 µM worked out at 102%.

As for `O=C(O)c1ccccc1C(=O)NCCC(c1ccc(F)cc1)c1ccco1` (stereo not drawn) [S27], the MIC with E. coli and with S. aureus was > 128 µg/mL in each case. Moreover, the remaining activity at 100 µM in test [1] stood at 99%.

On to `CCCc1ccc(S(=O)(=O)Nc2ccc(N3CCN(C4CCCCC4)CC3)cc2C(=O)O)cc1` [S28], for which the MIC in the test on E. coli and with S. aureus was > 128 µg/mL throughout. In addition, the remaining activity at 100 µM in test [1] came out at 113%.

As to `O=C(Cn1cc(-c2ccc(Cl)cc2)ncc1=O)NC(C(=O)O)c1ccccc1` (stereo not drawn) [S29], the MIC with E. coli and with S. aureus was > 128 µg/mL throughout. In addition, the remaining activity at 100 µM in test [1] came out at 96%.

`O=C(NCCc1ccccc1)c1ccc(NC(=O)c2nccnc2C(=O)O)cc1` [S30]: the MIC in the test on E. coli and in the test with S. aureus was > 128 µg/mL each time. Besides, the remaining activity at 100 µM in test [1] came to 122%.

On to `Cc1cccc(N2CCN(c3ccc(NC(=O)C(C)C)c(C(=O)O)c3)CC2)c1` [S31], for which the MIC in the test with E. coli and in the test with S. aureus was > 128 µg/mL in each case. Also, the remaining activity at 100 µM in test [1] was found to be 125%.

In the case of `Cc1cccc(C(=O)O)c1NC(=O)COc1ccc(Cl)cc1` [S32], the MIC with E. coli and with S. aureus was > 128 µg/mL throughout. For the same molecule, in test [1], the remaining activity at 100 µM is 122%.

On to `COC(=O)C(NC(=O)c1ccccc1C(=O)O)c1ccc(OCc2ccccc2)c(OC)c1` (stereo not drawn) [S33], for which the MIC in the test with E. coli and with S. aureus was > 128 µg/mL throughout. Further, the remaining activity at 100 µM in test [1] turned out to be 65%.

With `CCCCCCCCCCCCN(CP(=O)(O)O)CP(=O)(O)O` [S34], the MIC in the test on E. coli was > 128 µg/mL; in the test with S. aureus it was 128 µg/mL (≈ 343 µM). For the same molecule, in test [1], the remaining activity at 100 µM worked out at 147%.

The pIC50 is the negative decadic logarithm of the IC50, by convention in mol/L. `N#C/C(=C\c1cn(Cc2cccc3ccccc23)c2ccccc12)C(=O)Nc1ccccc1C(=O)O` [compound 1]: the MIC with E. coli and with S. aureus was > 128 µg/mL in each case. For the same molecule, the pIC50 in test [2] was 4.35.

In the case of `N#C/C(=C\c1cccc(OCc2ccc(F)cc2)c1)C(=O)Nc1ccccc1C(=O)O` [compound 2], the MIC in the test with E. coli and in the test with S. aureus was > 128 µg/mL in each case. Further, the pIC50 in test [2] is 4.60.

In the case of `O=C(CSc1nnc(-c2cc3ccccc3o2)n1-c1ccccc1)Nc1ccccc1C(=O)O` [compound 3], the MIC in the test on E. coli and in the test on S. aureus was > 128 µg/mL each time. The pIC50 in test [2] is 4.62.
